# Measurements reported in ChEMBL document CHEMBL3046146, “Mutations in the mitochondrial cytochrome b of Tetranychus urticae Koch (Acari: Tetranychidae) confer cross-resistance between bifenazate and acequinocyl” (2009).
# Legend:
# Type in all cases: functional
# Tetranychus urticae [1] = test: Resistance ratio of LC50 for Tetranychus urticae (two-spotted spider mite) HOL4 harboring mitochondrial G126S Cytb mutation to LC50 for Tetranychus urticae GSS
# Tetranychus urticae [2] = test: Synergism ratio of LC50 for adult Tetranychus urticae GSS (two-spotted spider mite) to LC50 for adult Tetranychus urticae GSS in presence of 2000 mg/L cytochrome P450 monoxygenase inhibitor, PBO
# Tetranychus urticae [3] = test: Toxicity against adult Tetranychus urticae MR-VL (two-spotted spider mite) in compound pretreated bean leaves assessed as mortality
# Tetranychus urticae [4] = test: Resistance ratio of LC50 for Tetranychus urticae HOL2 (two-spotted spider mite) harboring mitochondrial G126S Cytb mutation to LC50 for Tetranychus urticae GSS
# Tetranychus urticae [5] = test: Resistance ratio of LC50 for bifenazate-resistant Tetranychus urticae BR-VL (two-spotted spider mite) harboring mitochondrial G126S, S141F and D161G Cytb mutation to LC50 for Tetranychus urticae GSS
# Tetranychus urticae [6] = test: Resistance ratio of LC50 for bifenazate-susceptible Tetranychus urticae LS-VL (two-spotted spider mite) to LC50 for Tetranychus urticae GSS
# Tetranychus urticae [7] = test: Resistance ratio of LC50 for bifenazate-resistant Tetranychus urticae (two-spotted spider mite) BEL1 harboring mitochondrial P262T Cytb fixed mutation to LC50 for Tetranychus urticae GSS
# Tetranychus urticae [8] = test: Toxicity against female adult Tetranychus urticae (two-spotted spider mite) F1 progeny generated from reciprocal cross between female GSS and male BR-VL in compound pretreated bean leaves assesed as mortality
# Tetranychus urticae [9] = test: Toxicity against adult Tetranychus urticae BEL1 (two-spotted spider mite) in bean leaves assessed as mortality treated 24 hr after 2000 mg/L esterase inhibitor, DEF application; settings: BEL-1, 24 h
# Tetranychus urticae [10] = test: Toxicity against female adult Tetranychus urticae (two-spotted spider mite) F1 progeny generated from reciprocal cross between female BEL1 and male GSS in compound pretreated bean leaves assesed as mortality
# Tetranychus urticae [11] = test: Resistance ratio of LC50 for METI-resistant Tetranychus urticae MR-VP (two-spotted spider mite) to LC50 for Tetranychus urticae GSS
# Tetranychus urticae [12] = test: Toxicity against adult bifenazate-resistant Tetranychus urticae BEL1 (two-spotted spider mite) harboring mitochondrial P262T Cytb fixed mutation in compound pretreated bean leaves assessed as mortality; settings: BEL-1
# Tetranychus urticae [13] = test: Toxicity against adult Tetranychus urticae GSS (two-spotted spider mite) in compound pretreated bean leaves assessed as mortality
# Tetranychus urticae [14] = test: Resistance ratio of LC50 for Tetranychus urticae MR-VL (two-spotted spider mite) to LC50 for Tetranychus urticae GSS
# Tetranychus urticae [15] = test: Toxicity against adult Tetranychus urticae BEL1 (two-spotted spider mite) in bean leaves assessed as mortality treated 24 hr after 2000 mg/L cytochrome P450 monoxygenase inhibitor, PBO application; settings: BEL-1, 24 h
# Tetranychus urticae [16] = test: Synergism ratio of LC50 for adult Tetranychus urticae GSS (two-spotted spider mite) to LC50 for adult Tetranychus urticae GSS in presence of 1000 mg/L esterase inhibitor, DEF application
# Tetranychus urticae [17] = test: Toxicity against adult Tetranychus urticae BR-VL (two-spotted spider mite) in bean leaves assessed as mortality treated 24 hr after 2000 mg/L cytochrome P450 monoxygenase inhibitor, PBO application
# Tetranychus urticae [18] = test: Toxicity against adult bifenazate-susceptible Tetranychus urticae LS-VL (two-spotted spider mite) in compound pretreated bean leaves assessed as mortality
# Tetranychus urticae [19] = test: Toxicity against adult Tetranychus urticae GSS (two-spotted spider mite) in bean leaves assessed as mortality treated 24 hr after 1000 mg/L esterase inhibitor, DEF application
# Tetranychus urticae [20] = test: Toxicity against adult Tetranychus urticae BR-VL (two-spotted spider mite) in bean leaves assessed as mortality treated 24 hr after 2000 mg/L GST inhibitor, DEM application
# Tetranychus urticae [21] = test: Toxicity against adult Tetranychus urticae WI (two-spotted spider mite) in compound pretreated bean leaves assessed as mortality
# Tetranychus urticae [22] = test: Synergism ratio of LC50 for adult Tetranychus urticae GSS (two-spotted spider mite) to LC50 for adult Tetranychus urticae GSS in presence of 2000 mg/L GST inhibitor, DEM application
# Tetranychus urticae [23] = test: Toxicity against adult Tetranychus urticae GSS (two-spotted spider mite) in bean leaves assessed as mortality treated 24 hr after 2000 mg/L cytochrome P450 monoxygenase inhibitor, PBO application
# Tetranychus urticae [24] = test: Toxicity against adult bifenazate-resistant Tetranychus urticae BR-VL (two-spotted spider mite) harboring mitochondrial G126S, S141F and D161G Cytb mutation in compound pretreated bean leaves assessed as mortality
# Tetranychus urticae [25] = test: Toxicity against adult Tetranychus urticae GSS (two-spotted spider mite) in bean leaves assessed as mortality treated 24 hr after 2000 mg/L GST inhibitor, DEM application
# Tetranychus urticae [26] = test: Toxicity against adult Tetranychus urticae HOL3 (two-spotted spider mite) harboring mitochondrial P262T Cytb heteroplasmic mutation in compound pretreated bean leaves assessed as mortality
# Tetranychus urticae [27] = test: Toxicity against adult Tetranychus urticae HOL4 (two-spotted spider mite) harboring mitochondrial G126S Cytb mutation in compound pretreated bean leaves assessed as mortality
# Tetranychus urticae [28] = test: Resistance ratio of LC50 for Tetranychus urticae HOL3 (two-spotted spider mite) harboring mitochondrial P262T Cytb heteroplasmic mutation to LC50 for Tetranychus urticae GSS
# Tetranychus urticae [29] = test: Resistance ratio of LC50 for Tetranychus urticae HOL1 (two-spotted spider mite) harboring mitochondrial G126S and I136T Cytb mutation to LC50 for Tetranychus urticae GSS
# Tetranychus urticae [30] = test: Toxicity against adult Tetranychus urticae BEL1 (two-spotted spider mite) in bean leaves assessed as mortality treated 24 hr after 2000 mg/L GST inhibitor, DEM application; settings: BEL-1, 24 h
# Tetranychus urticae [31] = test: Toxicity against adult Tetranychus urticae HOL2 (two-spotted spider mite) harboring mitochondrial G126S Cytb mutation in compound pretreated bean leaves assessed as mortality
# Tetranychus urticae [32] = test: Toxicity against adult Tetranychus urticae HOL1 (two-spotted spider mite) harboring mitochondrial G126S and I136T Cytb mutation in compound pretreated bean leaves assessed as mortality
# Tetranychus urticae [33] = test: Toxicity against female adult Tetranychus urticae (two-spotted spider mite) F1 progeny generated from reciprocal cross between female BR-VL and male GSS in compound pretreated bean leaves assesed as mortality
# Tetranychus urticae [34] = test: Resistance ratio of LC50 for Tetranychus urticae WI (two-spotted spider mite) to LC50 for Tetranychus urticae GSS
# Tetranychus urticae [35] = test: Toxicity against adult METI-resistant Tetranychus urticae MR-VP (two-spotted spider mite) in compound pretreated bean leaves assessed as mortality
# Tetranychus urticae [36] = test: Toxicity against adult Tetranychus urticae BR-VL (two-spotted spider mite) in bean leaves assessed as mortality treated 24 hr after 2000 mg/L esterase inhibitor, DEF application
# Tetranychus urticae [37] = test: Toxicity against female adult Tetranychus urticae (two-spotted spider mite) F1 progeny generated from reciprocal cross between female GSS and male BEL1 in compound pretreated bean leaves assesed as mortality
# Tetranychus urticae [38] = test: Synergism ratio of LC50 for adult Tetranychus urticae BEL-1 (two-spotted spider mite) to LC50 for adult Tetranychus urticae BEL-1 in presence of 2000 mg/L esterase inhibitor, DEF application
# Tetranychus urticae [39] = test: Synergism ratio of LC50 for adult Tetranychus urticae BR-VL (two-spotted spider mite) to LC50 for adult Tetranychus urticae BR-VL in presence of 2000 mg/L cytochrome P450 monoxygenase inhibitor, PBO
# Tetranychus urticae [40] = test: Synergism ratio of LC50 for adult Tetranychus urticae BR-VL (two-spotted spider mite) to LC50 for adult Tetranychus urticae BR-VL in presence of 2000 mg/L esterase inhibitor, DEF application
# Tetranychus urticae [41] = test: Synergism ratio of LC50 for adult Tetranychus urticae BEL-1 (two-spotted spider mite) to LC50 for adult Tetranychus urticae BEL-1 in presence of 2000 mg/L cytochrome P450 monoxygenase inhibitor, PBO
# Tetranychus urticae [42] = test: Synergism ratio of LC50 for adult Tetranychus urticae BR-VL (two-spotted spider mite) to LC50 for adult Tetranychus urticae BR-VL in presence of 2000 mg/L GST inhibitor, DEM application
# Tetranychus urticae [43] = test: Synergism ratio of LC50 for adult Tetranychus urticae BEL-1 (two-spotted spider mite) to LC50 for adult Tetranychus urticae BEL-1 in presence of 2000 mg/L GST inhibitor, DEM application
compound,measurement,setting,value
CO/C=C(/C(=O)OC)c1ccccc1COc1cc(C(F)(F)F)nc(OC(C)C)n1 [FLUACRYPYRIM],RatioLC50,Tetranychus urticae [1],>1515
same,RatioLC50,Tetranychus urticae [2],1.7
same,LC50,Tetranychus urticae [3],28.8 mg/L
same,RatioLC50,Tetranychus urticae [4],>1515
same,RatioLC50,Tetranychus urticae [5],>1515
same,RatioLC50,Tetranychus urticae [6],>1515
same,RatioLC50,Tetranychus urticae [7],>1515
same,LC50,Tetranychus urticae [8],> 10000 mg/L
same,LC50,Tetranychus urticae [9],> 10000 mg/L
same,LC50,Tetranychus urticae [10],> 10000 mg/L
same,RatioLC50,Tetranychus urticae [11],>1515
same,LC50,Tetranychus urticae [12],> 10000 mg/L
same,LC50,Tetranychus urticae [13],6.6 mg/L
same,RatioLC50,Tetranychus urticae [14],4.4
same,LC50,Tetranychus urticae [15],> 10000 mg/L
same,RatioLC50,Tetranychus urticae [16],1.6
same,LC50,Tetranychus urticae [17],> 10000 mg/L
same,LC50,Tetranychus urticae [18],> 10000 mg/L
same,LC50,Tetranychus urticae [19],4.2 mg/L
same,LC50,Tetranychus urticae [20],> 10000 mg/L
same,LC50,Tetranychus urticae [21],3 mg/L
same,RatioLC50,Tetranychus urticae [22],0.5
same,LC50,Tetranychus urticae [23],3.8 mg/L
same,LC50,Tetranychus urticae [24],> 10000 mg/L
same,LC50,Tetranychus urticae [25],12.4 mg/L
same,LC50,Tetranychus urticae [26],> 10000 mg/L
same,LC50,Tetranychus urticae [27],> 10000 mg/L
same,RatioLC50,Tetranychus urticae [28],>1515
same,RatioLC50,Tetranychus urticae [29],>1515
same,LC50,Tetranychus urticae [30],> 10000 mg/L
same,LC50,Tetranychus urticae [31],> 10000 mg/L
same,LC50,Tetranychus urticae [32],> 10000 mg/L
same,LC50,Tetranychus urticae [33],> 10000 mg/L
same,RatioLC50,Tetranychus urticae [34],0.5
same,LC50,Tetranychus urticae [35],> 10000 mg/L
same,LC50,Tetranychus urticae [36],> 10000 mg/L
same,LC50,Tetranychus urticae [37],> 10000 mg/L
COc1ccc(-c2ccccc2)cc1NNC(=O)OC(C)C [BIFENAZATE],RatioLC50,Tetranychus urticae [1],>2780
same,LC50,Tetranychus urticae [3],10.5 mg/L
same,RatioLC50,Tetranychus urticae [4],12.1
same,RatioLC50,Tetranychus urticae [5],>2780
same,RatioLC50,Tetranychus urticae [6],0.4
same,RatioLC50,Tetranychus urticae [7],>2780
same,RatioLC50,Tetranychus urticae [11],2
same,LC50,Tetranychus urticae [12],> 10000 mg/L
same,LC50,Tetranychus urticae [13],3.6 mg/L
same,RatioLC50,Tetranychus urticae [14],2.9
same,LC50,Tetranychus urticae [18],1.6 mg/L
same,LC50,Tetranychus urticae [21],8.7 mg/L
same,LC50,Tetranychus urticae [24],> 10000 mg/L
same,LC50,Tetranychus urticae [26],> 10000 mg/L
same,LC50,Tetranychus urticae [27],> 10000 mg/L
same,RatioLC50,Tetranychus urticae [28],>2780
same,RatioLC50,Tetranychus urticae [29],>2780
same,LC50,Tetranychus urticae [31],43.4 mg/L
same,LC50,Tetranychus urticae [32],> 10000 mg/L
same,RatioLC50,Tetranychus urticae [34],2.4
same,LC50,Tetranychus urticae [35],7.3 mg/L
CCCCCCCCCCCCC1=C(OC(C)=O)C(=O)c2ccccc2C1=O [ACEQUINOCYL],RatioLC50,Tetranychus urticae [1],0.9
same,RatioLC50,Tetranychus urticae [2],2.26
same,RatioLC50,Tetranychus urticae [38],1.2
same,LC50,Tetranychus urticae [3],15.8 mg/L
same,RatioLC50,Tetranychus urticae [4],1
same,RatioLC50,Tetranychus urticae [5],105
same,RatioLC50,Tetranychus urticae [6],0.9
same,RatioLC50,Tetranychus urticae [7],48.5
same,LC50,Tetranychus urticae [8],22.3 mg/L
same,LC50,Tetranychus urticae [9],450 mg/L
same,LC50,Tetranychus urticae [10],535 mg/L
same,RatioLC50,Tetranychus urticae [11],2.7
same,LC50,Tetranychus urticae [12],548 mg/L
same,LC50,Tetranychus urticae [13],11.3 mg/L
same,RatioLC50,Tetranychus urticae [14],1.4
same,LC50,Tetranychus urticae [15],79.4 mg/L
same,RatioLC50,Tetranychus urticae [39],5.6
same,RatioLC50,Tetranychus urticae [16],1.1
same,RatioLC50,Tetranychus urticae [40],1.1
same,LC50,Tetranychus urticae [17],209 mg/L
same,LC50,Tetranychus urticae [18],10.7 mg/L
same,LC50,Tetranychus urticae [19],9.9 mg/L
same,LC50,Tetranychus urticae [20],782 mg/L
same,LC50,Tetranychus urticae [21],26.5 mg/L
same,RatioLC50,Tetranychus urticae [22],1.4
same,LC50,Tetranychus urticae [23],5 mg/L
same,RatioLC50,Tetranychus urticae [41],6.9
same,LC50,Tetranychus urticae [24],1180 mg/L
same,LC50,Tetranychus urticae [25],8.3 mg/L
same,LC50,Tetranychus urticae [26],126 mg/L
same,LC50,Tetranychus urticae [27],10.2 mg/L
same,RatioLC50,Tetranychus urticae [28],11.1
same,RatioLC50,Tetranychus urticae [42],1.5
same,RatioLC50,Tetranychus urticae [29],0.8
same,LC50,Tetranychus urticae [30],484 mg/L
same,LC50,Tetranychus urticae [31],11.2 mg/L
same,RatioLC50,Tetranychus urticae [43],1.1
same,LC50,Tetranychus urticae [32],9.4 mg/L
same,LC50,Tetranychus urticae [33],1200 mg/L
same,RatioLC50,Tetranychus urticae [34],2.3
same,LC50,Tetranychus urticae [35],30.5 mg/L
same,LC50,Tetranychus urticae [36],1060 mg/L
same,LC50,Tetranychus urticae [37],26.2 mg/L
